Measured values as given in patent publication US12226424B2, “Target protein degradation compounds, their anti-tumor use, their intermediates and use of intermediates” (ShanghaiTech University, priority 2018, dated 2025).

Each compound was assayed on SR cells (assay: Half inhibitory concentration (IC50) on ALK-positive SR cell proliferation (CCK-8)). Settings: Homo sapiens, SR, 72 h, read-out: IC50 (nM)/ SR cell line.
Assay type: cell-based
Protocol: ALK-positive SR cells (human large cell immunoblastic lymphoma) were purchased from the American Type Culture Collection (ATCC); H3122 cells (human non-small cell lung cancer) were from the Shanghai University of Science and Technology Lin Haifan's research group.
The cells used in this present disclosure were cultured in a 37° C. incubator containing 5% CO2.
SR cells were seeded in 100 μL RPMI1640 complete medium at a density of 10,000 cells/well. 100 μL of the inoculated cells were treated with 0.5 μL diluted PROTAD compound of the present disclosure to be tested at 10 successively decreasing concentrations (starting at the highest concentration of 10 μM; 5-fold serial dilutions) After the cells were treated with the drug for 72 h, cell viability was determined according to the CCK-8 reagent operating instructions. The negative control was DMSO, and the positive control was a commercial inhibitor. After CCK-8 treatment for 2 h, the value of O.D.450 was measured using a microplate reader.

In the case of CCc1cc2c(cc1N1CCC(NC(=O)CCCSc3cccc4c3C(=O)N(C3CCC(=O)NC3=O)C4=O)CC1)C(C)(C)c1[nH]c3cc(C#N)ccc3c1C2=O (stereo not shown) [SIAIS219013, N-(1-(3-cyano-9-ethyl-6,6-dimethyl-11-oxo-6,11-dihydro-5H-benzo[b]carbazol-8-yl)piperidin-4-yl)-4-((2-(2,6-dioxopiperidin-3-yl)-1,3-dioxoisoindolin-4-yl)thio)butanamide], the IC50 is reported as 143 nM.

Same assay, conditions: Homo sapiens; SR cells, 72 h, CCK-8; read-out: IC50 on proliferation of ALK-positive cells SR

Work on COc1cc(N2CCC(N3CCN(C)CC3)CC2)ccc1Nc1ncc(Cl)c(Nc2ccccc2P(C)(C)=O)n1 [Brigatinib, reference compound] yielded an IC50 of 10.6 nM.

Same assay, conditions: Homo sapiens; SR cells, 72 h drug treatment, CCK-8; read-out: IC50 (nM)/ SR cell line

In order of falling IC50:
1. CCc1cc2c(cc1N1CCC(NC(=O)CCCCCSc3cccc4c3C(=O)N(C3CCC(=O)NC3=O)C4=O)CC1)C(C)(C)c1[nH]c3cc(C#N)ccc3c1C2=O (stereo not shown) [SIAIS219014, N-(1-(3-cyano-9-ethyl-6,6-dimethyl-11-oxo-6,11-dihydro-5H-benzo[b]carbazol-8-yl)piperidin-4-yl)-6-((2-(2,6-dioxopiperidin-3-yl)-1,3-dioxoisoindolin-4-yl)thio)hexanamide]  101 nM
2. CCc1cc2c(cc1N1CCC(NC(=O)COCCOCCSc3cccc4c3C(=O)N(C3CCC(=O)NC3=O)C4=O)CC1)C(C)(C)c1[nH]c3cc(C#N)ccc3c1C2=O (stereo not shown) [SIAIS219022, N-(1-(3-cyano-9-ethyl-6,6-dimethyl-11-oxo-6,11-dihydro-5H-benzo[b]carbazol-8-yl)piperidin-4-yl)-2-(2-(2-((2-(2,6-dioxopiperidin-3-yl)-1,3-dioxoisoindolin-4-yl)thio)ethoxy)ethoxy)acetamide]  80.5 nM
3. COc1cc(N2CCC(NC(=O)COCCOCCOCCOCCOCCSc3cccc4c3CN(C3CCC(=O)NC3=O)C4=O)CC2)ccc1Nc1ncc(Cl)c(Nc2ccccc2P(C)(C)=O)n1 (stereo not shown) [SIAIS219143, N-(1-(4-((5-chloro-4-((2-(dimethylphosphoryl)phenyl)amino)pyrimidin-2-yl)amino)-3-methoxyphenyl)piperidin-4-yl)-17-((2-(2,6-dioxopiperidin-3-yl)-1-oxoisoindolin-4-yl)thio)-3,6,9,12,15-pentaoxaheptadecan-1-amide]  5.53 ± 1.28 nM
4. COc1cc(N2CCC(NC(=O)COCCOCCSc3cccc4c3CN(C3CCC(=O)NC3=O)C4=O)CC2)ccc1Nc1ncc(Cl)c(Nc2ccccc2P(C)(C)=O)n1 (stereo not shown) [SIAIS219140, N-(1-(4-((5-chloro-4-((2-(dimethylphosphoryl)phenyl)amino)pyrimidin-2-yl)amino)-3-methoxyphenyl)piperidin-4-yl)-2-(2-(2-((2-(2,6-dioxopiperidin-3-yl)-1-oxoisoindolin-4-yl)thio)ethoxy)ethoxy)acetamide]  5.08 ± 0.62 nM
5. CCc1cc2c(cc1N1CCC(N3CCN(C(=O)CCCCCCSc4cccc5c4CN(C4CCC(=O)NC4=O)C5=O)CC3)CC1)C(C)(C)c1[nH]c3cc(C#N)ccc3c1C2=O (stereo not shown) [SIAIS262101, 8-(4-(4-(7-((2-(2,6-dioxopiperidin-3-yl)-1-oxoisoindolin-4-yl)thio)heptanoyl)piperazin-1-yl)piperidin-1-yl)-9-ethyl-6,6-dimethyl-11-oxo-6,11-dihydro-5H-benzo[b]carbazole-3-carbonitrile]  2.94 ± 3.7 nM
6. COc1cc(N2CCC(NC(=O)CCSc3cccc4c3CN(C3CCC(=O)NC3=O)C4=O)CC2)ccc1Nc1ncc(Cl)c(Nc2ccccc2P(C)(C)=O)n1 (stereo not shown) [SIAIS219134, N-(1-(4-((5-chloro-4-((2-(dimethylphosphoryl)phenyl)amino)pyrimidin-2-yl)amino)-3-methoxyphenyl)piperidin-4-yl)-3-((2-(2,6-dioxopiperidin-3-yl)-1-oxoisoindolin-4-yl)thio)propanamide]  2.7 ± 0.8 nM
7. COc1cc(N2CCC(N3CCN(C)CC3)CC2)ccc1Nc1ncc(Cl)c(Nc2ccccc2P(C)(C)=O)n1 [Brigatinib, reference compound]  2.1 ± 1.2 nM
8. CCc1cc2c(cc1N1CCC(N3CCN(CCCCCCSc4cccc5c4CN(C4CCC(=O)NC4=O)C5=O)CC3)CC1)C(C)(C)c1[nH]c3cc(C#N)ccc3c1C2=O (stereo not shown) [SIAIS262159, 8-(4-(4-(6-((2-(2,6-dioxopiperidin-3-yl)-1-oxoisoindolin-4-yl)thio)hexyl)piperazin-1-yl)piperidin-1-yl)-9-ethyl-6,6-dimethyl-11-oxo-6,11-dihydro-5H-benzo[b]carbazole-3-carbonitrile]  1 nM
9. CCc1cc2c(cc1N1CCC(N3CCN(C(=O)CCCCSc4cccc5c4CN(C4CCC(=O)NC4=O)C5=O)CC3)CC1)C(C)(C)c1[nH]c3cc(C#N)ccc3c1C2=O (stereo not shown) [SIAIS262099, 8-(4-(4-(5-((2-(2,6-dioxopiperidin-3-yl)-1-oxoisoindolin-4-yl)thio)pentanoyl)piperazin-1-yl)piperidin-1-yl)-9-ethyl-6,6-dimethyl-11-oxo-6,11-dihydro-5H-benzo[b]carbazole-3-carbonitrile]  0.93 ± 1.11 nM
10. CCc1cc2c(cc1N1CCC(N3CCN(C(=O)COCCOCCOCCOCCOCCSc4cccc5c4CN(C4CCC(=O)NC4=O)C5=O)CC3)CC1)C(C)(C)c1[nH]c3cc(C#N)ccc3c1C2=O (stereo not shown) [SIAIS249070, 8-(4-(4-(17-((2-(2,6-dioxopiperidin-3-yl)-1-oxoisoindolin-4-yl)thio)-3,6,9,12,15-pentaoxaheptadecanoyl)piperazin-1-yl)piperidin-1-yl)-9-ethyl-6,6-dimethyl-11-oxo-6,11-dihydro-5H-benzo[b]carbazole-3-carbonitrile]  0.43 ± 0.11 nM
11. CCc1cc2c(cc1N1CCC(N3CCN(C(=O)COCCOCCSc4cccc5c4CN(C4CCC(=O)NC4=O)C5=O)CC3)CC1)C(C)(C)c1[nH]c3cc(C#N)ccc3c1C2=O (stereo not shown) [SIAIS249067, 8-(4-(4-(2-(2-(2-((2-(2,6-dioxopiperidin-3-yl)-1-oxoisoindolin-4-yl)thio)ethoxy)ethoxy)acetyl)piperazin-1-yl)piperidin-1-yl)-9-ethyl-6,6-dimethyl-11-oxo-6,11-dihydro-5H-benzo[b]carbazole-3-carbonitrile]  0.38 ± 0.18 nM
12. COc1cc(N2CCC(NC(=O)CCCSc3cccc4c3CN(C3CCC(=O)NC3=O)C4=O)CC2)ccc1Nc1ncc(Cl)c(Nc2ccccc2P(C)(C)=O)n1 (stereo not shown) [SIAIS219135, N-(1-(4-((5-chloro-4-((2-(dimethylphosphoryl)phenyl)amino)pyrimidin-2-yl)amino)-3-methoxyphenyl)piperidin-4-yl)-4-((2-(2,6-dioxopiperidin-3-yl)-1-oxoisoindolin-4-yl)thio)butanamide]  0.33 ± 0.02 nM
13. CCc1cc2c(cc1N1CCC(N3CCN(C(=O)CCCSc4cccc5c4CN(C4CCC(=O)NC4=O)C5=O)CC3)CC1)C(C)(C)c1[nH]c3cc(C#N)ccc3c1C2=O (stereo not shown) [SIAIS262098, 8-(4-(4-(4-((2-(2,6-dioxopiperidin-3-yl)-1-oxoisoindolin-4-yl)thio)butanoyl)piperazin-1-yl)piperidin-1-yl)-9-ethyl-6,6-dimethyl-11-oxo-6,11-dihydro-5H-benzo[b]carbazole-3-carbonitrile]  0.29 ± 0.21 nM
14. CCc1cc2c(cc1N1CCC(N3CCN(C(=O)COCCSc4cccc5c4CN(C4CCC(=O)NC4=O)C5=O)CC3)CC1)C(C)(C)c1[nH]c3cc(C#N)ccc3c1C2=O (stereo not shown) [SIAIS249066, 8-(4-(4-(2-(2-((2-(2,6-dioxopiperidin-3-yl)-1-oxoisoindolin-4-yl)thio)ethoxy)acetyl)piperazin-1-yl)piperidin-1-yl)-9-ethyl-6,6-dimethyl-11-oxo-6,11-dihydro-5H-benzo[b]carbazole-3-carbonitrile]  0.17 ± 0.14 nM
